From US20240246908A1 (ORION CORPORATION, priority 2021, published 2024) come the findings set out here.

This assay has as its system YAP-TEAD. In words: TEAD inhibition, Hippo Pathway TEAD Reporter MCF-7 luciferase assay. The assay is classed as cell-based. The following applies: Homo sapiens, MCF7, 24 h, Hippo Pathway TEAD Reporter MCF-7 cells, luciferase activity after 24 h; read-out: IC50 of the test compounds on YAP-TEAD inhibition (Group). The method, then:
TEAD inhibition was assayed using Hippo Pathway TEAD Reporter—MCF-7 cell line (BPS Bioscience, Catalog #: 60618) which contains firefly luciferase gene under the control of TEAD responsive elements. In the cell line, YAP1 remains in the nucleus inducing constitutive expression of luciferase reporter. Amount of expressed luciferase was detected using ONE-Glo Luciferase Assay System (Promega) and measuring plates with Enspire Multimode Plate Reader (PerkinElmer).
Hippo Pathway TEAD Reporter—MCF-7 cells were plated on white/clear Poly-D-Lysine coated 384 plates (Corning #356660) at the density of 8500 cells/well. Next day test compounds (11 concentrations with 4 replicates) and DMSO control (0.1%) were added to the plate. After 24 h cells were lysed and luciferase activity was measured. The half maximal inhibitory concentration (IC50) of the test compounds on YAP-TEAD inhibition was determined.

The term IC50 denotes the point on the concentration scale where inhibition reaches its midpoint. As for `COc1cc(NC(=O)C2CCC(=O)N2C)cc(Oc2ccc(Cl)c(C(F)(F)F)c2)c1` (stereo not shown) [Compound 274, N-(3-(4-Chloro-3-(trifluoromethyl)phenoxy)-5-methoxyphenyl)-1-methyl-5-oxopyrrolidine-2-carboxamide], the IC50 fell in the range of 50 to 300 nM.
`COc1ccc(Oc2ccc(C(F)(F)F)cc2)cc1NC(=O)C1COC(=O)N1C` (stereo not shown) [Compound 87, N-(2-Methoxy-5-(4-(trifluoromethyl)phenoxy)phenyl)-3-methyl-2-oxo-oxazolidine-4-carboxamide]: the IC50 was under 50 nM.
`O=C1CC(C(=O)Nc2cccc(Oc3cccc(C(F)(F)F)c3)c2)N1` (stereo not shown) [Compound 7, 4-Oxo-N-(3-(3-(trifluoromethyl)phenoxy)phenyl)azetidine-2-carboxamide]: the IC50 lay in the range of 301 to 2000 nM.
For the compound `COc1ccc(Oc2ccc(Cl)cn2)cc1NC(=O)C1CCC(=O)N1C` (stereo not shown) [Compound 203, N-(5-((5-Chloropyridin-2-yl)oxy)-2-methoxyphenyl)-1-methyl-5-oxo-pyrrolidine-2-carboxamide], the IC50 was in the range of 301 to 2000 nM.
For `COc1ccc(Oc2ccc(C(F)(F)F)cc2)cc1NC(=O)C1CCS(=O)(=O)C1` (stereo not shown) [Compound 116, N-(2-Methoxy-5-(4-(trifluoromethyl)phenoxy)phenyl)tetrahydrothiophene-3-carboxamide 1,1-dioxide], the IC50 was in the range of 50 to 300 nM.
As for `CN1C(=O)CC[C@@H]1C(=O)Nc1cc(Oc2ccc(C(F)(F)F)cn2)cc2cccnc12` [Compound 281, (R)-1-Methyl-5-oxo-N-(6-((5-(trifluoromethyl)pyridin-2-yl)oxy)quinolin-8-yl)pyrrolidine-2-carboxamide], the IC50 was in the range of 50 to 300 nM.
With `COc1ccc(Oc2ccc(C(F)(F)F)cc2)cc1NC(=O)[C@@H]1CCC(=O)N1` (stereo in doubt) [Compound 46, N-(2-Methoxy-5-(4-(trifluoromethyl)phenoxy)phenyl)-5-oxopyrrolidine-2-carboxamide], the IC50 fell in the range of 301 to 2000 nM.
For `COc1ccc(Oc2ccc(C(F)(F)F)cc2)cc1NC(=O)c1coc(=O)[nH]1` [Compound 388, N-(2-Methoxy-5-(4-(trifluoromethyl)phenoxy)phenyl)-2-oxo-2,3-dihydrooxazole-4-carboxamide], the IC50 fell in the range of 301 to 2000 nM.
With `CN1C(=O)OC[C@H]1C(=O)Nc1cc(Oc2ccc(C(F)(F)F)cn2)ccc1F` [Compound 199, (S)—N-(2-Fluoro-5-((5-(trifluoromethyl)pyridin-2-yl)oxy)phenyl)-3-methyl-2-oxooxazolidine-4-carboxamide], the IC50 fell in the range of 301 to 2000 nM.
`COc1ccc(Oc2ccc(C(F)(F)F)cc2)cc1NC(=O)C1CNC(=O)N1C` (stereo not shown) [Compound 117, N-(2-Methoxy-5-(4-(trifluoromethyl)phenoxy)phenyl)-3-methyl-2-oxo-imidazolidine-4-carboxamide]: the IC50 is under 50 nM.
To `COc1cc(Oc2ccc(F)c(F)c2)cc(NC(=O)C2CCC(=O)N2C)c1F` (stereo not shown) [Compound 251, N-(5-(3,4-difluorophenoxy)-2-fluoro-3-methoxyphenyl)-1-methyl-5-oxopyrro-lidine-2-carboxamide] belongs 301 to 2000 nM.
Take `COc1ccc(O[C@H]2CC[C@H](C(F)(F)F)CC2)cc1NC(=O)[C@H]1CCC(=O)N1C` [Compound 103, (R)—N-(2-Methoxy-5-(((trans)-4-(trifluoromethyl)cyclohexyl)oxy)phenyl)-1-methyl-5-oxopyrrolidine-2-carboxamide]: the IC50 is under 50 nM.
On to `COc1ccc(Oc2ccc(C(F)(F)F)cc2)cc1NC(=O)C1CS(=O)(=O)N1C` (stereo not shown) [Compound 71, N-(2-Methoxy-5-(4-(trifluoromethyl)phenoxy)phenyl)-2-methyl-1,2-thiazeti-dine-3-carboxamide 1,1-dioxide], for which the IC50 lay in the range of 50 to 300 nM.
The same measure for `COc1cc(NC(=O)C2CCC(=O)N2)cc(Oc2ccc(C(F)(F)F)cc2)c1` (stereo not shown) [Compound 253, N-(3-Methoxy-5-(4-(trifluoromethyl)phenoxy)phenyl)-5-oxopyrro-lidine-2-carboxamide]: under 50 nM; for `Cc1c(Oc2cccc(C(F)(F)F)c2)cc(NC(=O)C2CCC(=O)N2C)c2c1OCCO2` (stereo not shown) [Compound 236, 1-Methyl-N-(8-methyl-7-(3-(trifluoromethyl)phenoxy)-2,3-dihydrobenzo[b]-[1,4]dioxin-5-yl)-5-oxopyrrolidine-2-carboxamide]: 301 to 2000 nM.
Take `CN1C(=O)OCC1C(=O)Nc1cc(Oc2ccc(C(F)(F)F)cn2)ccc1F` (stereo not shown) [Compound 197, N-(2-Fluoro-5-((5-(trifluoromethyl)pyridin-2-yl)oxy)phenyl)-3-methyl-2-oxooxazolidine-4-carboxamide]: the IC50 lay within 50 to 300 nM.
The same measure for `CN1C(=O)NC[C@H]1C(=O)Nc1cc(Oc2ccc(C(F)(F)F)cn2)cc2ccoc12` [Compound 216, (S)-3-Methyl-2-oxo-N-(5-((5-(trifluoromethyl)pyridin-2-yl)oxy)benzofuran-7-yl)imidazolidine-4-carboxamide]: under 50 nM.
Regarding `COc1ccc(Oc2ccc(C(F)(F)F)cc2)cc1NC(=O)[C@H]1COC(=O)N1C` [Compound 101, (R)—N-(2-Methoxy-5-(4-(trifluoromethyl)phenoxy)phenyl)-3-methyl-2-oxooxazolidine-4-carboxamide], the IC50 is under 50 nM.
Regarding `COc1ccc(/C=C/C2CCC(F)(F)CC2)cc1NC(=O)C1CCC(=O)N1` (stereo not shown) [Compound 21, (E)-N-(5-(2-(4,4-Difluorocyclohexyl)vinyl)-2-methoxyphenyl)-5-oxopyrroli-dine-2-carboxamide], the IC50 was under 50 nM.
With `COc1ccc(Oc2ccc(Cl)c(F)c2)cc1NC(=O)[C@@H]1CNC(=O)N1C` [Compound 338, (S)—N-(5-(4-Chloro-3-fluorophenoxy)-2-methoxyphenyl)-3-methyl-2-oxo-imidazolidine-4-carboxamide], the IC50 was under 50 nM.
With `COc1ccc(Oc2cccc(C(F)(F)F)c2)cc1NC(=O)C1(C)CCC(=O)N1` (stereo not shown) [Compound 14, N-(2-Methoxy-5-(3-(trifluoromethyl)phenoxy)phenyl)-2-methyl-5-oxopyrrolidi-ne-2-carboxamide], the IC50 lay in the range of 301 to 2000 nM.
Take `COc1cc(F)c(COc2cccc(F)c2)cc1NC(=O)C1CCC(=O)N1` (stereo not shown) [Compound 73, N-(4-Fluoro-5-((3-fluorophenoxy)methyl)-2-methoxyphenyl)-5-oxopyrrolidine-2-carboxamide]: the IC50 was 50 to 300 nM.
`COc1ccc(Oc2ccc(C(F)(F)F)cc2)cc1NC(=O)C1CCC(=O)N1C` (stereo not shown) [Compound 48, N-(2-Methoxy-5-(4-(trifluoromethyl)phenoxy)phenyl)-1-methyl-5-oxopyrrolidi-ne-2-carboxamide]: the IC50 was under 50 nM.
The same measure for `COc1ccc(Cc2ccc(C(F)(F)F)cc2)cc1NC(=O)C1CCC(=O)N1C` (stereo not shown) [Compound 257, N-(2-Methoxy-5-(4-(trifluoromethyl)benzyl)phenyl)-1-methyl-5-oxopyrrolidine-2-carboxamide]: 50 to 300 nM; for `CN1C(=O)CC[C@@H]1C(=O)Nc1cc(/C=C/C2CCC(F)(F)CC2)cc2c1OCC2` [Compound 405, (R,E)-N-(5-(2-(4,4-Difluorocyclohexyl)vinyl)-2,3-dihydrobenzofuran-7-yl)-1-methyl-5-oxopyrrolidine-2-carboxamide]: under 50 nM.
Consider `COc1cc(NC(=O)[C@H]2CCC(=O)N2C)cc(Oc2ccc(F)c(F)c2)c1` [Compound 285, (R)—N-(3-(3,4-Difluorophenoxy)-5-methoxyphenyl)-1-methyl-5-oxopyrrolidine-2-carboxamide], for which the IC50 lay within 50 to 300 nM.
`COc1ccc(Oc2ccc(C(F)F)cc2)cc1NC(=O)C1CCC(=O)N1C` (stereo not shown) [Compound 292, N-(5-(4-(Difluoromethyl)phenoxy)-2-methoxyphenyl)-1-methyl-5-oxo-pyrrolidine-2-carboxamide]: the IC50 is under 50 nM.
As for `CN1C(=O)CC[C@H]1C(=O)Nc1cc(O[C@H]2CC[C@H](C(F)(F)F)CC2)cc2c1OCC2` [Compound 150, (S)-1-Methyl-5-oxo-N-(5-(((trans)-4-(trifluoromethyl)cyclohexyl)oxy)-2,3-dihydrobenzofuran-7-yl)pyrrolidine-2-carboxamide], the IC50 is under 50 nM.
In the case of `COc1ccc(Oc2ccc(C(F)(F)F)cn2)cc1NC(=O)[C@@H]1CNC(=O)N1C` [Compound 130, (S)—N-(2-Methoxy-5-((5-(trifluoromethyl)pyridin-2-yl)oxy)phenyl)-3-methyl-2-oxoimidazolidine-4-carboxamide], the IC50 is under 50 nM.
The same measure for `COc1ccc(Oc2cccc(C(F)(F)F)c2)cc1NC(=O)C1CCC(=O)N1` (stereo not shown) [Compound 10, N-(2-Methoxy-5-(3-(trifluoromethyl)phenoxy)phenyl)-5-oxopyrrolidine-2-carboxamide]: 50 to 300 nM.
For `COc1ccc(COc2ccc(F)c(F)c2)cc1NC(=O)C1COC(=O)N1C` (stereo not shown) [Compound 89, N-(5-((3,4-Difluorophenoxy)methyl)-2-methoxyphenyl)-3-methyl-2-oxo-oxazolidine-4-carboxamide], the IC50 was in the range of 50 to 300 nM.
The same measure for `COc1ccc(Oc2ccc(C(F)F)cc2)cc1NC(=O)[C@@H]1CCC(=O)N1C` [Compound 313, (S)—N-(5-(4-(Difluoromethyl)phenoxy)-2-methoxyphenyl)-1-methyl-5-oxo-pyrrolidine-2-carboxamide]: under 50 nM; for `COc1ccc(Oc2ccc(F)c(F)c2)cc1NC(=O)[C@@H]1CCC(=O)N1C` [Compound 94, (S)—N-(5-(3,4-Difluorophenoxy)-2-methoxyphenyl)-1-methyl-5-oxopyrrolidine-2-carboxamide]: 50 to 300 nM; for `CN1C(=O)CCC1C(=O)Nc1cc(Oc2ccc(C(F)(F)F)cc2)cc2ccoc12` (stereo not shown) [Compound 185, 1-Methyl-5-oxo-N-(5-(4-(trifluoromethyl)phenoxy)benzofuran-7-yl)pyrrolidine-2-carboxamide]: under 50 nM.
